In assay [1] the test system is HCV replicon (Renilla luciferase) in HUH-7 cells. As to the kind of experiment: HCV replicon luciferase reporter assay. It is filed as cell-based, HCV strain 1b. The text has this:
An HCV replicon whole cell system was established as described by Lohmann V, Korner F, Koch J, Herian U, Theilmann L, Bartenschlager R., Science 285(5424):110-3 (1999). This system enabled us to evaluate the effects of our HCV Protease compounds on HCV RNA replication. Briefly, using the HCV strain 1b sequence described in the Lohmann paper (Assession number:AJ238799), an HCV cDNA was synthesized by Operon Technologies, Inc. (Alameda, Calif.), and the full-length replicon was then assembled in plasmid pGem9zf(+) (Promega, Madison, Wis.) using standard molecular biology techniques. […]
As a secondary assay, EC50 determinations from the replicon FRET assay were confirmed in a replicon luciferase reporter assay. […] Following 4 days in a 37° C./5% CO2 incubator, cells were analyzed for Renilla Luciferase activity using the Promega Dual-Glo Luciferase Assay System. […] Plates were read on a Packard TopCount NXT using a luminescence program. The percentage inhibition was calculated using the formula below: % control=average luciferase signal in experimental wells (+compound) average luciferase signal in DMSO control wells (−compound)
The values were graphed and analyzed using XLfit to obtain the EC50 value.

The target in assay [2] is T1, human neutrophil elastase (HNE) (Homo sapiens, UniProt P08246).
T1 construct: purchased Sigma, EMDbiosciences
T1 sequence (P08246 30-247 limits assumed): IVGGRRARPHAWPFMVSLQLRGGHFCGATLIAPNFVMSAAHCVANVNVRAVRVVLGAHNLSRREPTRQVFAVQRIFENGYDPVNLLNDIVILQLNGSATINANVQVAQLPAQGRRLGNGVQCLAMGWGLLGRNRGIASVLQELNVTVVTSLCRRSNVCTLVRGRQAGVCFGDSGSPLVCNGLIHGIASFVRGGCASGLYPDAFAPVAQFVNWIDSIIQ
The experiment in a line: Specificity assay, elastase (HNE). It is filed as biochemical. The following applies: read-out: HLE activity in the specificity assays. Here is the method:
(§1) The specificities of compounds of the present disclosure were determined against a variety of serine proteases: human neutrophil elastase (HNE), porcine pancreatic elastase (PPE) and human pancreatic chymotrypsin and one cysteine protease: human liver cathepsin B. In all cases a 96-well plate format protocol using a fluorometric Amino-Methyl-Coumarin (AMC) substrate specific for each enzyme was used as described previously (PCT Patent Application No. WO 00/09543) with some modifications to the serine protease assays. All enzymes were purchased from Sigma, EMDbiosciences while the substrates were from Bachem, Sigma and EMDbiosciences.
(§2) Compound concentrations varied from 100 to 0.4 μM depending on their potency. The enzyme assays were each initiated by addition of substrate to enzyme-inhibitor pre-incubated for 10 min at room temperature and hydrolysis to 15% conversion as measured on cytofluor.
50 mM Tris-HCl, pH 8.0, 50 mM NaCl, 0.1 mM EDTA, 3% DMSO, 0.02% Tween-20, 5 μM succ-AAPV-AMC and 20 nM HNE or 8 nM PPE;
(§3) The percentage of inhibition was calculated using the formula: [1−((UVinh−UVblank)/(UVctl−UVblank))]×100
(§4) A non-linear curve fit was applied to the inhibition-concentration data, and the 50% effective concentration (IC50) was calculated by the use of Excel XLfit software.

In assay [3] the test system is human pancreatic chymotrypsin. The experiment in a line: Specificity assay, chymotrypsin. It is filed as biochemical. The following applies: read-out: Chymotrypsin activity in the specificity assays. Here is the method: as §1, §2
50 mM Tris(hydroxymethyl)aminomethane hydrochloride (Tris-HCl) pH 8, 0.5 M Sodium Sulfate (Na2SO4), 50 mM NaCl, 0.1 mM EDTA, 3% DMSO, 0.01% Tween-20 with 5 μM LLVY-AMC and 1 nM Chymotrypsin.
as §3, §4

Assay [4] concerns the target T2, human liver cathepsin B (Homo sapiens, UniProt P07858).
T2 construct: purchased Sigma, EMDbiosciences; host or cells: human liver (as named)
The experiment in a line: Specificity assay, cathepsin B. The class given is biochemical. The settings on record: read-out: Cathepsin B activity in the specificity assays. On the procedure: as §1, §2
100 mM NaOAC (Sodium Acetate) pH 5.5, 3% DMSO, 1 mM TCEP (Tris(2-carboxyethyl)phosphine hydrochloride), 5 nM Cathepsin B (enzyme stock activated in buffer containing 20 mM TCEP before use), and 2 μM Z-FR-AMC diluted in H2O.
as §3, §4

Molecules are shown by their SMILES. A value given as a limit tells only on which side of the number the result lay.

As for `C=C[C@@H]1C[C@]1(NC(=O)[C@@H]1C[C@@H](Oc2ncc(OC)c3ccc(Cl)cc23)CN1C(=O)[C@@H](Nc1nc(-c2cccc(OC(F)(F)F)c2)cs1)C(C)(C)C)C(=O)NS(=O)(=O)C1CC1` [Example 68], the EC50 in assay [1] was determined as 0.002 µM. Further, the IC50 is above 50 µM in assay [2], 3 µM in assay [3] and 15 µM in assay [4].

For the origin of these results see patent publication US8163921B2, “Hepatitis C virus inhibitors” (Bristol-Myers Squibb Company, priority 2008, dated 2012).
